Test results from patent publication US20080319000A1, “Use of 3,1IB-Cis-Dihydrotetrabenazine for the Treatment of Symptoms of Huntingtons Disease” (CAMBRIDGE LABORATORIES (IRELAND) LIMITED, priority 2005, published 2008).

Assays:
[1] = test system: Male Sprague-Dawley rats; test: Spontaneous locomotor activity in rats (sedative properties); type: in vivo; settings: for Inactivity Duration / Large movements Duration / Large movements Occurrence: 20 min period, mean ± SEM n=12
Description: A study was carried out in rats to determine whether the dihydrotetrabenazine isomers of the invention have sedative properties. […] Male Sprague-Dawley rats, (Charles River Laboratories, Saint-Germain/L'Arbresle, France), weighing 200-250 g at the beginning of the study, were used for the studies. […] The rats were allowed to acclimatize to their conditions for at least five days before commencement of the study. The rats received food ([…], France, ref. 811002) and water (tap water in water bottle) ad libitum. Solutions of each test compound in corn oil were freshly prepared on the day of the experiment. Haloperidol was prepared in hydroxyethylcellulose, 0.5% in deionized water. Either the vehicle or the test compounds were administered as a single dose (0.3, 1, 3 and 10 mg/kg, 2 mL/kg i.p.). The reference compound haloperidol (1 mg/kg) was administered i.p. […] The animals were placed in plexiglass cages under a video camera in a room with low light intensity (maximum 50 lux). At forty five minutes and 3 hours after administration, locomotor activity was determined during 20 minute periods using a video image analyzer (Videotrack, View Point, France). […] The number and duration of ambulatory movements and duration of inactivity was measured. At the end of the locomotor activity measurement (45 minutes and 3 hours), palpebral closure and arousal were be scored as follows in the plexiglass cage: […] Image tracking was performed using a video camera placed above the plexiglass cage, recording overall locomotor activity. […] The results were expressed as the means ±SEMs of the 12 individual values. Statistical analyses were carried out using ANOVA (one way) and Dunnett's t-test and with the non parametric test of Kruskal-Wallis followed by a Mann & Whitney U-test for the sedation cotation. A p value of p<0.05 was taken as indicating significance. Group size n=12 Group 1: Reference, haloperidol (1 mg/kg i.p.) Group 2: Vehicle control group (2 ml/kg i.p.) Group 3: tetrabenazine (0.3 mg/kg i.p) Group 4: tetrabenazine (1 mg/kg i.p) Group 5: tetrabenazine (3 mg/kg i.p) Group 6: tetrabenazine (10 mg/kg i.p) Group 7: […]

[2] = target: T1, VMAT1 (Homo sapiens, UniProt P54219); test: VMAT1 affinity; type: binding
T1 sequence (P54219 1-525): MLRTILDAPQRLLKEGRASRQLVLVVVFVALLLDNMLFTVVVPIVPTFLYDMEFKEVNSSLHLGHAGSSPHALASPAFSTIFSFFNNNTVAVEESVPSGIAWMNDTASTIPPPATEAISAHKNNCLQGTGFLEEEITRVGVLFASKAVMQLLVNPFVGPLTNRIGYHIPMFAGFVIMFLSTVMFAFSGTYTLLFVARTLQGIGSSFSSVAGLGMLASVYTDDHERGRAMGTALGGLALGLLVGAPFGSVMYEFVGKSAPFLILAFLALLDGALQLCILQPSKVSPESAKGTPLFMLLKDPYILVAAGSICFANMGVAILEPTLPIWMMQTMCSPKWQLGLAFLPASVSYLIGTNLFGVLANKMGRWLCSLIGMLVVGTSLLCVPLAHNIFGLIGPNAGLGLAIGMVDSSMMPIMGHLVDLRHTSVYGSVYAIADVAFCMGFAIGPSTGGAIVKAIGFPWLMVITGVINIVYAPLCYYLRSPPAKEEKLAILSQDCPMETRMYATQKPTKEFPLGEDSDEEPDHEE

[3] = target: T2, catechol O-methyl transferase (COMT) (Homo sapiens, UniProt P21964); test: COMT inhibition; type: biochemical
T2 sequence (P21964 1-271): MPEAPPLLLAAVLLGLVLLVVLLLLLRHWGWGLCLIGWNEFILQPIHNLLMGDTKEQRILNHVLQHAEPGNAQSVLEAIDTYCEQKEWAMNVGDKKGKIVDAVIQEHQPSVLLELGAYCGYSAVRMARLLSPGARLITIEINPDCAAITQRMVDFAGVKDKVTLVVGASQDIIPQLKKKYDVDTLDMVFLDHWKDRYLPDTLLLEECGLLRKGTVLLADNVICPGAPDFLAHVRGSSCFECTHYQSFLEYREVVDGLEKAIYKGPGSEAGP

[4] = target: Dopamine Transporter (DAT) (Homo sapiens, UniProt Q01959); test: Dopamine Transporter (DAT) binding
[5] = test system: adrenergic receptors; test: Adrenergic receptor inhibition; type: binding
[6] = target: 5-hydroxytryptamine isoform 1b (Homo sapiens, UniProt P28222); test: 5-hydroxytryptamine 1b inhibition; type: binding
[7] = target: T3, monoamine oxidase isoform A (Homo sapiens, UniProt P21397); test: Monoamine oxidase A inhibition; type: biochemical
T3 sequence (P21397 1-527): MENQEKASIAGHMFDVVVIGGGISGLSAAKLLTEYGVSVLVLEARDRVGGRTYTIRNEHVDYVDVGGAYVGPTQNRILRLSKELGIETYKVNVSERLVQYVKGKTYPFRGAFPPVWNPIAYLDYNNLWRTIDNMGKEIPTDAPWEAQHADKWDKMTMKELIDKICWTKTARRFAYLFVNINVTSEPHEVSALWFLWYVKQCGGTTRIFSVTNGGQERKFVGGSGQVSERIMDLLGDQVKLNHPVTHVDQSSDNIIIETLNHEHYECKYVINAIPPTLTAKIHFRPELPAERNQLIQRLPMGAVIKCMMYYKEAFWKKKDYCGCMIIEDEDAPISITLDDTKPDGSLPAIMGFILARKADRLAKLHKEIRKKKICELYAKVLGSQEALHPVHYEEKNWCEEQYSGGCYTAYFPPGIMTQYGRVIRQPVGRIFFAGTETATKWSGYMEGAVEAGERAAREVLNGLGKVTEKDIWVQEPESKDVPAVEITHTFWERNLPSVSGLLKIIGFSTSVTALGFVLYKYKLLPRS

[8] = target: serotonin transporter protein SERT (Homo sapiens, UniProt P31645); test: Serotonin transporter SERT inhibition; type: binding
[9] = target: T4, monoamine oxidase isoform B (Homo sapiens, UniProt P27338); test: Monoamine oxidase B inhibition; type: biochemical
T4 sequence (P27338 1-520): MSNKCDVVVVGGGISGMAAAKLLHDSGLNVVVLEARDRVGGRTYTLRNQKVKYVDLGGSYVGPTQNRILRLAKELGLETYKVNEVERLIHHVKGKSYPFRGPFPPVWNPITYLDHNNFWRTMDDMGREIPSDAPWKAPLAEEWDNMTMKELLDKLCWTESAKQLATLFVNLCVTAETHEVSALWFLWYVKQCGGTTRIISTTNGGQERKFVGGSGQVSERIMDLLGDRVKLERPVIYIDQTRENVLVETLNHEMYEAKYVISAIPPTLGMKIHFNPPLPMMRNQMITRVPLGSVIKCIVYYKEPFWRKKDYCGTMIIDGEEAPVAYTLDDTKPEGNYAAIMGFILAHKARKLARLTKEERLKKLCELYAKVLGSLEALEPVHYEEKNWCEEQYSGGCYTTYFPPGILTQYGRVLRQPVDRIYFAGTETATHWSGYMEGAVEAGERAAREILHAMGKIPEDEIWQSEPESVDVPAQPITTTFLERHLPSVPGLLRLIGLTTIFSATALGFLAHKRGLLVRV

[10] = target: 5-hydroxytryptamine isoform 1d (Homo sapiens, UniProt P28221); test: 5-hydroxytryptamine 1d inhibition; type: binding
[11] = test system: dopamine receptor; test: Dopamine receptor binding
[12] = locomotor studies carried out on rats
[13] = rats, 0.3 mg/kg i.p., 45 minutes after administration
[14] = rats, 0.3 mg/kg i.p., 3 hours after administration
[15] = rats, 1 mg/kg i.p., 45 minutes after administration
[16] = rats, 1 mg/kg i.p., 3 hours after administration
[17] = rats, 3 mg/kg i.p., 45 minutes after administration
[18] = rats, 3 mg/kg i.p., 3 hours after administration
[19] = rats, 10 mg/kg i.p., 45 minutes after administration
[20] = rats, 10 mg/kg i.p., 3 hours after administration
[21] = rats, 0.3, 1, 3 and 10 mg/kg i.p., 45 minutes and 3 hours after administration

Sequence of 5-hydroxytryptamine isoform 1d (P28221 whole entry, canonical isoform): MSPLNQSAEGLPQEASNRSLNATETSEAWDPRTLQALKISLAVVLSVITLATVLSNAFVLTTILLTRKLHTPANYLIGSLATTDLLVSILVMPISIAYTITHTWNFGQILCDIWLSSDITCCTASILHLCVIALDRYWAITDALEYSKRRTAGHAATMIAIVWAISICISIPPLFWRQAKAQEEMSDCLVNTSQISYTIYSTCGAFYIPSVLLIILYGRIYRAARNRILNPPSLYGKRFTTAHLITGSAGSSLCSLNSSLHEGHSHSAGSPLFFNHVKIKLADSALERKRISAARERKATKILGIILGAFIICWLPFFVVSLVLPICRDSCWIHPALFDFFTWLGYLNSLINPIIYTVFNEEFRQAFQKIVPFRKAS
Sequence of 5-hydroxytryptamine isoform 1b (P28222 whole entry, canonical isoform): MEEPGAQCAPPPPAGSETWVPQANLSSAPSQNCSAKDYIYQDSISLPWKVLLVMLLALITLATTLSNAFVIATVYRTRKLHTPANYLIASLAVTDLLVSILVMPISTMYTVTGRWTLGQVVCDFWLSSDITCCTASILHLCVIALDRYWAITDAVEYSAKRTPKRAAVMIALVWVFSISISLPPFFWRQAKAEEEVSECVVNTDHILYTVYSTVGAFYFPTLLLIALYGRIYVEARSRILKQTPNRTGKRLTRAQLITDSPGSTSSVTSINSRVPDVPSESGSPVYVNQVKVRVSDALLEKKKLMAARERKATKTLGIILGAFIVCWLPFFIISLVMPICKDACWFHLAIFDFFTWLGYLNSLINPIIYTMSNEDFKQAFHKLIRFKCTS
Sequence of Dopamine Transporter (DAT) (Q01959 whole entry, species assumed): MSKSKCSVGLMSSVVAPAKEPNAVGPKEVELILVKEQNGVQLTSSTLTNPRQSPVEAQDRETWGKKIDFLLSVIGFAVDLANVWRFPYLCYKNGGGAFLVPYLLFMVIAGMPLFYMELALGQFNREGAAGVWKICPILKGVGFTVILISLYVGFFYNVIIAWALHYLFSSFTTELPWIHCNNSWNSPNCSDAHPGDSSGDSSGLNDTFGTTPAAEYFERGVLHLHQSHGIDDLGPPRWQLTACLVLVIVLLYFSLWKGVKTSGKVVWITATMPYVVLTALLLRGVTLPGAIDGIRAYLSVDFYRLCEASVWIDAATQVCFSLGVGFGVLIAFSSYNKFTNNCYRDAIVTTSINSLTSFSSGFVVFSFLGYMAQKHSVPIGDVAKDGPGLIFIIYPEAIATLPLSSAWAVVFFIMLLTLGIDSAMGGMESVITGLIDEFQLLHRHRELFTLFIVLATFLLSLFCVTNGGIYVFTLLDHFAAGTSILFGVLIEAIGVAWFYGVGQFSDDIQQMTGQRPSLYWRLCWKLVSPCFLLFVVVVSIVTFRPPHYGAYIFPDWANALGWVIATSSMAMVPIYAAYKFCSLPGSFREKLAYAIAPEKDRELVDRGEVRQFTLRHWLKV
Sequence of serotonin transporter protein SERT (P31645 whole entry, canonical isoform): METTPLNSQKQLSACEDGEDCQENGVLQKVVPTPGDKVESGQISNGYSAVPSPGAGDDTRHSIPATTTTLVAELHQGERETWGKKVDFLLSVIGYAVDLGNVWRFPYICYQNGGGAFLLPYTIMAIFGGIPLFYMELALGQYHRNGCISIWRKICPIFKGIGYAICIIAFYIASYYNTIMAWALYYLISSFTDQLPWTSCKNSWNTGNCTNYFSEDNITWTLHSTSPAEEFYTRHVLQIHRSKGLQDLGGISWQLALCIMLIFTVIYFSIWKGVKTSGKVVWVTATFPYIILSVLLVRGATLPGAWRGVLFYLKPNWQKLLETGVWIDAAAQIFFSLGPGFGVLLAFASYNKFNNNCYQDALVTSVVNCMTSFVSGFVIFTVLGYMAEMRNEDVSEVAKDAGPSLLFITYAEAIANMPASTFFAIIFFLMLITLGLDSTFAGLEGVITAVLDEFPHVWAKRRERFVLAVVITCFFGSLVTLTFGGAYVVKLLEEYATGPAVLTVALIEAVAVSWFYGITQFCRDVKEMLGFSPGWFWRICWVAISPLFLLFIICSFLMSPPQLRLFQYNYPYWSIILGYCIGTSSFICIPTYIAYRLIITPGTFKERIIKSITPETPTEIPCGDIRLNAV

| SMILES | sedative effect [1, 12] | Inactivity Duration [1, 13] | Large movements Duration [1, 13] | Large movements Occurrence [1, 13] | Inactivity Duration [1, 14] | Large movements Duration [1, 14] | Large movements Occurrence [1, 14] | Inactivity Duration [1, 15] | Large movements Duration [1, 15] | Large movements Occurrence [1, 15] | Inactivity Duration [1, 16] | Large movements Duration [1, 16] | Large movements Occurrence [1, 16] | Inactivity Duration [1, 17] | Large movements Duration [1, 17] | Large movements Occurrence [1, 17] | Inactivity Duration [1, 18] | Large movements Duration [1, 18] | Large movements Occurrence [1, 18] | Inactivity Duration [1, 19] | also measured |
| --- | --- | --- | --- | --- | --- | --- | --- | --- | --- | --- | --- | --- | --- | --- | --- | --- | --- | --- | --- | --- | --- |
| COc1cc2c(cc1OC)C1CC(=O)C(CC(C)C)CN1CC2 (racemic) [tetrabenazine, 1,3,4,6,7,11b-hexahydro-9,10-dimethoxy-3-(2-methylpropyl)-2H-benzo(a)quinolizin-2-one] | dose related sedative effect | 390.4 ± 37.4 s | 66.8 ± 10.7 s | 253 ± 32 | 545.9 ± 37.1 s | 24.3 ± 4.2 s | 96 ± 14 | 456.5 ± 50.5 s | 46.5 ± 8.6 s | 189 ± 32 | 556.9 ± 31.1 s | 21.5 ± 4.0 s | 90 ± 16 | 697.8 ± 39.7 s | 8.7 ± 5.9 s | 38 ± 25 | 729.9 ± 26.8 s | 1.7 ± 0.9 s | 9 ± 4 | 723.1 ± 46.5 s | Large movements Duration [1, 19]: 0.2 ± 0.2 s; Large movements Occurrence [1, 19]: 1 ± 1; Inactivity Duration [1, 20]: 762.1 ± 40.7 s; Large movements Duration [1, 20]: 0.6 ± 0.3 s; Large movements Occurrence [1, 20]: 3 ± 1; sedative effect [1, 21]: dose-dependent sedative effect; affinity for VMAT1 [2]: only a low affinity |
| COc1cc2c(cc1OC)C1CC(O)C(CC(C)C)CN1CC2 (single isomer, unassigned; isomer c) [Isomer C] | no sedative effects were observed | 323.7 ± 25.6 s | 79.2 ± 10.0 s | 285 ± 34 | 519.3 ± 33.7 s | 31.4 ± 6.0 s | 113 ± 19 | 324.6 ± 38.1 s | 71.8 ± 8.3 s | 295 ± 30 | 510.2 ± 44.9 s | 30.3 ± 6.5 s | 128 ± 24 | 322.7 ± 27.8 s | 84.0 ± 9.4 s | 308 ± 36 | 493.6 ± 38.5 s | 30.2 ± 5.5 s | 125 ± 22 | 368.7 ± 30.9 s | Large movements Duration [1, 19]: 66.5 ± 9.9 s; Large movements Occurrence [1, 19]: 254 ± 32; Inactivity Duration [1, 20]: 465.7 ± 49.0 s; Large movements Duration [1, 20]: 42.7 ± 8.0 s; Large movements Occurrence [1, 20]: 164 ± 30; sedative effect [1, 21]: no sedative effects at any time; hyperlocomotor effect ([1]; rats, 3 hours after administration): slight and non-significant hyperlocomotor effect; inhibitory activity against catechol O-methyl transferase (COMT) [3]: no inhibitory activity; Dopamine Transporter (DAT) binding activity [4]: lack Dopamine Transporter (DAT) binding activity; inhibition of the adrenergic receptors [5]: either weakly active or inactive; inhibitory activity against 5-hydroxytryptamine isoform 1b [6]: no inhibitory activity; inhibitory activity against monoamine oxidase isoform A [7]: no inhibitory activity; inhibition of the serotonin transporter protein SERT [8]: potent inhibitors; inhibitory activity against monoamine oxidase isoform B [9]: no inhibitory activity; inhibitory activity against 5-hydroxytryptamine isoform 1d [10]: no inhibitory activity; dopamine receptor binding activity [11]: only weak or non-existent |
| O=C(CCCN1CCC(O)(c2ccc(Cl)cc2)CC1)c1ccc(F)cc1 [haloperidol, reference compound] | – | – | – | – | – | – | – | 637.2 ± 60.1 s | 14.8 ± 8.5 s | 58 ± 33 | 723.6 ± 50.2 s | 2.2 ± 2.0 s | 9 ± 8 | – | – | – | – | – | – | – | – |
